Activity calls are given as the source filed them. The rule behind the calls is not given here.
Legend:
ECa-109 cell line [1] = experiment: Induction of apoptosis in human EC109 cells assessed as induction of cytochrome c release from mitochondria at 5 to 10 uM after 24 hrs by Western blot analysis; type: functional, cell-based
SMMC-7721 = experiment: Cytotoxicity against human SMMC7721 cells assessed as growth inhibition after 72 hrs by MTT assay; type: functional, cell-based; details: SMMC-7721, 72 h
[2] = Cell cycle arrest in human EC109 cells assessed as accumulation at G0/G1 phase at 2.5 uM after 12 hrs by propidium iodide staining-based flow cytometric analysis (reference value: 50.87%); type: functional; details: ECa-109
[3] = Cell cycle arrest in human EC109 cells assessed as accumulation at G2/M phase at 5 uM after 24 hrs by propidium iodide staining-based flow cytometric analysis (reference value: 6.31%); type: functional; details: ECa-109
[4] = Cytotoxicity against human EC109 cells assessed as growth inhibition after 72 hrs by MTT assay; type: functional, cell-based; details: ECa-109, 72 h
[5] = Cell cycle arrest in human EC109 cells assessed as accumulation at S phase at 10 uM after 12 hrs by propidium iodide staining-based flow cytometric analysis (reference value: 33.29%); type: functional; details: ECa-109
[6] = Cell cycle arrest in human EC109 cells assessed as accumulation at G0/G1 phase at 5 uM after 24 hrs by propidium iodide staining-based flow cytometric analysis (reference value: 51.57%); type: functional; details: ECa-109
ECa-109 cell line [7] = experiment: Induction of apoptosis in human EC109 cells assessed as live cells at 2.5 uM after 24 hrs by annexin V-FITC/propidium iodide staining-based flow cytometric analysis (reference value: 93.6%); type: functional
ECa-109 cell line [8] = experiment: Induction of apoptosis in human EC109 cells assessed as early apoptotic cells at 10 uM after 12 hrs by annexin V-FITC/propidium iodide staining-based flow cytometric analysis (reference value: 6.1%); type: functional
[9] = Cell cycle arrest in human EC109 cells assessed as accumulation at G0/G1 phase at 10 uM after 24 hrs by propidium iodide staining-based flow cytometric analysis (reference value: 51.57%); type: functional; details: ECa-109
ECa-109 cell line [10] = experiment: Induction of apoptosis in human EC109 cells assessed as live cells at 20 uM after 12 hrs by annexin V-FITC/propidium iodide staining-based flow cytometric analysis (reference value: 92.1%); type: functional
ECa-109 cell line [11] = experiment: Induction of apoptosis in human EC109 cells assessed as increase in early apoptotic cells at 2.5 to 40 uM by annexin V-FITC/propidium iodide staining-based flow cytometric analysis; type: functional, cell-based; details: TDE = time-dependent effect
MGC-803 = experiment: Cytotoxicity against human MGC803 cells assessed as growth inhibition after 72 hrs by MTT assay; type: functional, cell-based; details: MGC-803, 72 h
ECa-109 cell line [12] = experiment: Induction of apoptosis in human EC109 cells assessed as late apoptotic cells at 10 uM after 12 hrs by annexin V-FITC/propidium iodide staining-based flow cytometric analysis (reference value: 1.4%); type: functional
ECa-109 cell line [13] = experiment: Induction of apoptosis in human EC109 cells assessed as damaged cells at 2.5 uM after 12 hrs by annexin V-FITC/propidium iodide staining-based flow cytometric analysis (reference value: 0.4%); type: functional
ECa-109 cell line [14] = experiment: Induction of apoptosis in human EC109 cells assessed as nuclear fragmentation at 1.25 to 20 uM after 24 hrs by Hoechst 33258 staining-based fluorescence microscopic analysis; type: functional, cell-based
ECa-109 cell line [15] = experiment: Induction of apoptosis in human EC109 cells assessed as damaged cells at 10 uM after 12 hrs by annexin V-FITC/propidium iodide staining-based flow cytometric analysis (reference value: 0.4%); type: functional
ECa-109 cell line [16] = experiment: Induction of apoptosis in human EC109 cells assessed as damaged cells at 40 uM after 24 hrs by annexin V-FITC/propidium iodide staining-based flow cytometric analysis (reference value: 0.1%); type: functional
[17] = Cell cycle arrest in human EC109 cells assessed as accumulation at S phase at 5 uM after 12 hrs by propidium iodide staining-based flow cytometric analysis (reference value: 33.29%); type: functional; details: ECa-109
[18] = Upregulation of Bax protein expression in human EC109 cells at 5 to 10 uM after 24 hrs by Western blot analysis; type: functional, cell-based; details: ECa-109
[19] = Cell cycle arrest in human EC109 cells assessed as accumulation at S phase at 2.5 uM after 24 hrs by propidium iodide staining-based flow cytometric analysis (reference value: 37.99%); type: functional; details: ECa-109
ECa-109 cell line [20] = experiment: Induction of apoptosis in human EC109 cells assessed as increase in late apoptotic cells after 12 to 24 hrs by annexin V-FITC/propidium iodide staining-based flow cytometric analysis; type: functional, cell-based
ECa-109 cell line [21] = experiment: Induction of apoptosis in human EC109 cells assessed as damaged cells at 2.5 uM after 24 hrs by annexin V-FITC/propidium iodide staining-based flow cytometric analysis (reference value: 0.1%); type: functional
[22] = Cell cycle arrest in human EC109 cells assessed as accumulation at S phase at 10 uM after 24 hrs by propidium iodide staining-based flow cytometric analysis (reference value: 37.99%); type: functional; details: ECa-109
[23] = Cytotoxicity against human L02 cells assessed as growth inhibition after 72 hrs by MTT assay; type: cell-based; details: L02, 72 h
ECa-109 cell line [24] = experiment: Induction of apoptosis in human EC109 cells assessed as early apoptotic cells at 20 uM after 24 hrs by annexin V-FITC/propidium iodide staining-based flow cytometric analysis (reference value: 3.8%); type: functional
[25] = Cell cycle arrest in human EC109 cells assessed as accumulation at G2/M phase at 2.5 uM after 24 hrs by propidium iodide staining-based flow cytometric analysis (reference value: 6.31%); type: functional; details: ECa-109
ECa-109 cell line [26] = experiment: Induction of apoptosis in human EC109 cells assessed as live cells at 20 uM after 24 hrs by annexin V-FITC/propidium iodide staining-based flow cytometric analysis (reference value: 93.6%); type: functional
ECa-109 cell line [27] = experiment: Induction of apoptosis in human EC109 cells assessed as damaged cells at 40 uM after 12 hrs by annexin V-FITC/propidium iodide staining-based flow cytometric analysis (reference value: 0.4%); type: functional
ECa-109 cell line [28] = experiment: Induction of apoptosis in human EC109 cells assessed as live cells at 2.5 uM after 12 hrs by annexin V-FITC/propidium iodide staining-based flow cytometric analysis (reference value: 92.1%); type: functional
[29] = Cell cycle arrest in human EC109 cells assessed as accumulation at G2/M phase after 12 to 24 hrs by propidium iodide staining-based flow cytometric analysis; type: functional; details: ECa-109
ECa-109 cell line [30] = experiment: Induction of apoptosis in human EC109 cells assessed as damaged cells at 10 uM after 24 hrs by annexin V-FITC/propidium iodide staining-based flow cytometric analysis (reference value: 0.1%); type: functional
ECa-109 cell line [31] = experiment: Induction of apoptosis in human EC109 cells assessed as increase in late apoptotic cells at 2.5 to 40 uM by annexin V-FITC/propidium iodide staining-based flow cytometric analysis; type: functional, cell-based; details: TDE = time-dependent effect
[32] = Disruption of mitochondrial membrane potential in human EC109 cells at 5 uM after 24 hrs by JC1 staining-based flow cytometric analysis (reference value: 8.1%); type: functional, ECa-109
ECa-109 cell line [33] = experiment: Induction of apoptosis in human EC109 cells assessed as damaged cells at 5 uM after 24 hrs by annexin V-FITC/propidium iodide staining-based flow cytometric analysis (reference value: 0.1%); type: functional
ECa-109 cell line [34] = experiment: Induction of apoptosis in human EC109 cells assessed as late apoptotic cells at 5 uM after 24 hrs by annexin V-FITC/propidium iodide staining-based flow cytometric analysis (reference value: 2.5%); type: functional

In the case of C[C@]12CC[C@H](O)CC1=CC[C@@H]1[C@@H]2CC[C@]2(C)c3nc4ncnn4c(-c4cccc(-c5c6c(nc7ncnn57)[C@@]5(C)CC[C@H]7[C@@H](CC=C8C[C@@H](O)CC[C@@]87C)[C@@H]5C6)c4)c3C[C@@H]12, the Activity (ECa-109 cell line [1]) is reported as “Active”, the IC50 (SMMC-7721) is reported as 1680 nM and the Activity [2] is reported as 48.5%. It also gave an Activity [3] of 19.4%, an IC50 [4] of 2360 nM and an Activity [5] of 21.6%. For the same compound, the Activity [6] was 47.1%, the Activity (ECa-109 cell line [7]) was 72.3% and the Activity (ECa-109 cell line [8]) was 19.9%. For the same compound, the Activity [9] was 45%, the Activity (ECa-109 cell line [10]) was 12.8% and the Activity (ECa-109 cell line [11]) was “tde”. For the same compound, the IC50 (MGC-803) was 130 nM, the Activity (ECa-109 cell line [12]) was 23.4% and the Activity (ECa-109 cell line [13]) was 1.7%. For the same compound, the Activity (ECa-109 cell line [14]) was “Active”, the Activity (ECa-109 cell line [15]) was 2.7% and the Activity (ECa-109 cell line [16]) was 1.3%. For the same compound, the Activity [17] was 29.5%, the Activity [18] was “Active” and the Activity [19] was 43.5%. For the same compound, the Activity (ECa-109 cell line [20]) was “Dose-dependent effect”, the Activity (ECa-109 cell line [21]) was 0.2% and the Activity [22] was 28.5%. The IC50 [23] was 83000 nM, the Activity (ECa-109 cell line [24]) was 31.5% and the Activity [25] was 14.8%. It also gave an Activity (ECa-109 cell line [26]) of 7.2%, an Activity (ECa-109 cell line [27]) of 7.9% and an Activity (ECa-109 cell line [28]) of 58.3%. For the same compound, the Activity [29] was “Dose-dependent effect”, the Activity (ECa-109 cell line [30]) was 2.9% and the Activity (ECa-109 cell line [31]) was “tde”. The Activity [32] was 40%, the Activity (ECa-109 cell line [33]) was 0.4% and the Activity (ECa-109 cell line [34]) was 12.2%.
